Assay results as given in ChEMBL document CHEMBL1201862, “PubChem BioAssay data set” (2004).
The source made the active and inactive calls.

Legend:
[1] = inhibitors of intracellular T. cruzi replication, confirmation, NIH3T3 host cells, beta-gal luminescence (AID 2044); type: functional, cell-based;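 note: intracellular parasites grown in NIH/3T3 mouse fibroblasts as host cells; luminescent beta-galactosidase reporter signal from transgenic T. cruzi replicating inside host cells; inhibitors lower the luminescence signal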
[2] = cytotoxicity toward NIH3T3 fibroblasts, dose response, counter-screen, cell-based, ATP luminescence, mouse fibroblasts (AID 2010); type: functional;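 note: cells exposed to compound for about 90 hours before reading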
[3] = target: Cytochrome P450 2C9 (Homo sapiens, UniProt P11712)
Chain of Cytochrome P450 2C9 (P11712 whole entry): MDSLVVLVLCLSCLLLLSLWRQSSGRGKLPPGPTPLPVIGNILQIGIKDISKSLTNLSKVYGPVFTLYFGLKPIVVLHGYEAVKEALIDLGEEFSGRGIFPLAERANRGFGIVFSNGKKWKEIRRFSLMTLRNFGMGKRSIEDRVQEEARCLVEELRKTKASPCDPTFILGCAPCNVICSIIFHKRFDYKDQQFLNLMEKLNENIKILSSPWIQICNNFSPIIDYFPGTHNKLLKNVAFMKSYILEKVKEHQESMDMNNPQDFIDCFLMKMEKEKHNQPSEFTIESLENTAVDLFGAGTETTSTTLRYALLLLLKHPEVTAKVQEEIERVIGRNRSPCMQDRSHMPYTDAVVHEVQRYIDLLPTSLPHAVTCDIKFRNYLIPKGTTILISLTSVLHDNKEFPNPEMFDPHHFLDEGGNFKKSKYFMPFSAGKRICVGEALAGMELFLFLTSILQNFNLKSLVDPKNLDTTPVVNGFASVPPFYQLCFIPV

[4] = system: Streptococcus sp. 'group A'; test: growth inhibition of control SK(-) GAS strain, dose response, counter-screen for streptokinase expression inhibitor project, luminescence, kanamycin, BacTiterGlo, confirmation (AID 1900); type: functional, organism-based
[5] = system: Streptococcus; test: Group A Streptococcus viability loss, dose response, counter-screen for streptokinase expression inhibitor project, luminescence, BacTiterGlo (AID 1915); type: functional, organism-based;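 note: potency for reduction of bacterial viability or growth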
[6] = target: Cytochrome P450 2C19 (Homo sapiens, UniProt P33261); test: Cytochrome panel assay with activity outcomes. Panel member name: p450-cyp2c19 Compounds with AC50 equal or less than 10 uM are considered active; type: functional; conditions: read-out: AC50
Chain of Cytochrome P450 2C19 (P33261 whole entry): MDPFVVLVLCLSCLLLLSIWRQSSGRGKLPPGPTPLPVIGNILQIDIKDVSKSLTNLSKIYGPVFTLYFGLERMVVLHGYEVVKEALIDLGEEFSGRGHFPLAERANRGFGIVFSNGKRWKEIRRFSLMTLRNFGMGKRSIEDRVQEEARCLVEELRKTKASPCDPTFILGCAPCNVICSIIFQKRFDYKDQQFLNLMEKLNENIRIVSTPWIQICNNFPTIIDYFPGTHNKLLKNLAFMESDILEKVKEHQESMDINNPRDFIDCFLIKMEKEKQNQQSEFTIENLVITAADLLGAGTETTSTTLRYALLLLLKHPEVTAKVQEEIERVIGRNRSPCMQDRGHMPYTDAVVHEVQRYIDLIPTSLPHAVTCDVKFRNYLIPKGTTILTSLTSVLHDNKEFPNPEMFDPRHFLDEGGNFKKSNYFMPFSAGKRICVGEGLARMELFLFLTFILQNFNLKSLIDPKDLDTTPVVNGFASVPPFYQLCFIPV

CCN(CC)S(=O)(=O)c1ccc(C)c(NC(=O)Cn2cnc3cc([N+](=O)[O-])ccc3c2=O)c1
EC50 [1]: 0.406 µM (active) | EC50 [2]: > 60 µM (not active)

N=C1/C(=N/Nc2cccc(Cl)c2)C(=O)NN1c1ccccc1
AC50 [3]: 1.26 µM (inconclusive)

CC(NCC(O)COC1CCC(C(C)(C)C)CC1)c1ccccc1 (stereo unspecified)
EC50 [1]: 0.114 µM (active) | EC50 [2]: > 60 µM (not active)

COc1cc(/C=N/NC(=O)c2nc3ccccn3c2C)cc(OC)c1O
EC50 [1]: > 60 µM (not active) | EC50 [2]: > 60 µM (not active)

COc1ccc(C(=O)c2c[nH]c(C(=O)NCc3cccs3)c2)cc1
AC50 [3]: 0.251 µM (inconclusive)

CC(=O)OCC1=C(C(=O)O)N2C(=O)C(NC(=O)C(C)Cn3nc(C)c(Cl)c3C)C2SC1 (stereo unspecified)
EC50 [4]: 3.56 µM (active) | EC50 [5]: 5.07 µM (active)

CC(C(=O)Nc1ccc(F)c(F)c1F)N(C)CC(=O)Nc1ccccc1Br (stereo unspecified)
EC50 [1]: 1.71 µM (active) | EC50 [2]: > 60 µM (not active)

COc1cccc(CN(C)CC2CCCN(CCc3ccccc3C)C2)c1 (stereo unspecified)
EC50 [1]: 0.184 µM (active) | EC50 [2]: 24.6 µM (active)

CCOC(=O)Cn1nnc2c(sc3nc4c(c(-c5ccc(Cl)cc5)c32)CCC4)c1=O
AC50 [6]: 7.08 µM (inconclusive)

Cc1nc(-c2ccccn2)nc(N(C)c2ccccc2)c1Cl
EC50 [1]: 3.26 µM (active) | EC50 [2]: > 60 µM (not active)

CCCCN1C(=O)NC(=O)/C(=C(/CC)NCCCN(C)C)C1=O
EC50 [1]: 0.236 µM (active) | EC50 [2]: > 60 µM (not active)

CCN(CC)CCN(C(=O)C1=COCCO1)c1nc2ccc(C)cc2s1
EC50 [1]: 0.384 µM (active) | EC50 [2]: > 60 µM (not active)

COc1cccc(Cn2c(=O)c(C)nc3cnc(N4CCNCC4)nc32)c1
AC50 [6]: 39.8 µM (inconclusive)

O=C1C=C(Nc2nc(C(=O)O)cc(=O)[nH]2)c2ccccc2C1=O
AC50 [6]: 3.16 µM (inconclusive)

COc1ccc(C2CC(c3ccc(C)cc3)Nc3nc(N)nn32)cc1 (stereo unspecified)
EC50 [1]: 7.21 µM (active) | EC50 [2]: > 60 µM (not active)

CC(C(=O)NC1C(=O)N2C(C(=O)O)=C(CSc3nnnn3C)CSC12)n1cc(Br)cn1 (stereo unspecified)
EC50 [4]: 0.101 µM (active) | EC50 [5]: 0.125 µM (active)

COc1ccccc1N1CCN(C(=O)c2ccc3[nH]c4c(c3c2)CC(C)CC4)CC1 (stereo unspecified)
EC50 [1]: 2 µM (active) | EC50 [2]: > 60 µM (not active)

Cc1cc(-c2cc(C)c(O)c(C(C)(C)C)c2)cc(C(C)(C)C)c1O
AC50 [3]: 5.01 µM (inconclusive)

CCC(NC(=O)c1ccc([N+](=O)[O-])cc1[N+](=O)[O-])c1ccccc1 (stereo unspecified)
EC50 [1]: 0.879 µM (active) | EC50 [2]: > 60 µM (not active)

Cc1cc(N/N=C/c2ccc(Cl)cc2)nc(NCc2ccccc2)n1
EC50 [1]: 1.82 µM (active) | EC50 [2]: 11.4 µM (active)

CCCCCOc1ccc(Cn2ccnc2)cc1[N+](=O)[O-]
EC50 [1]: 2.21 µM (active) | EC50 [2]: > 60 µM (not active)

COC(=O)[C@@]1(Cc2ccc(OC)cc2)[C@H]2c3cc(C(=O)N4CCCC4)n(C[C@H](O)CO)c3C[C@H]2CN1C(=O)c1ccccc1
AC50 [6]: 39.8 µM (inconclusive) | AC50 [3]: 31.6 µM (inconclusive)

COc1ccc(/C=N/NC(N)=S)cc1OC(=O)c1cccc2ccccc12
AC50 [3]: 6.31 µM (inconclusive)

CO[C@H]1C=CO[C@@]2(C)Oc3c(C)c(O)c4c(O)c(c5c(c4c3C2=O)=NC2(CCN(CC(C)C)CC2)N=5)NC(=O)C(C)=CC=C[C@H](C)[C@H](O)[C@@H](C)[C@@H](O)[C@@H](C)[C@H](OC(C)=O)[C@@H]1C
EC50 [4]: < 0.06 µM (active) | EC50 [5]: < 0.06 µM (active)

Cc1ccc(C)c(N2CCN(C(=O)c3ccc(Cn4c(=O)[nH]c5ccccc5c4=O)cc3)CC2)c1
EC50 [1]: 0.687 µM (active) | EC50 [2]: > 60 µM (not active)

Cc1cc(C(=O)CCl)c(C)n1Cc1ccco1
EC50 [1]: 3.3 µM (active) | EC50 [2]: 7.2 µM (active)

CCCc1nn2c(O)c(C(c3ccc(C)cc3)c3c(O)n4nc(CCC)sc4nc3=O)c(=O)nc2s1
AC50 [3]: 12.6 µM (inconclusive)
